Values after ≈ are worked out from the molar mass of the structure shown.
Experiment: Cytotoxicity against GPK cells by [3H]thymidine incorporation assay
Assay type: functional, cell-based
Conditions: Cavia porcellus
O=c1ccc2c3c(cc[n+]2[O-])c2ccccc2n13 showed an IC50 of 4.21 µg/mL (≈ 17.8 µM).
With COc1cnc2ccc(=O)n3c4ccccc4c1c23 the IC50 was 5.76 µg/mL (≈ 23 µM).
In the case of COc1cc2nccc3c4ccccc4n(c1=O)c23 [5-METHOXYCANTHINONE], the IC50 is reported as 5.44 µg/mL (≈ 21.7 µM).
Compound O=c1ccc2nccc3c4ccccc4n1c23 [CANTHIN-6-ONE] has an IC50 of 1.11 µg/mL (≈ 5.04 µM).
